Results published in US10239832B2, “N-(1-hydroxy-3-(pyrrolidinyl)propan-2-yl)pyrrolidine-3-carboxamide derivatives as glucosylceramide synthase inhibitors” (BIOMARIN PHARMACEUTICAL INC., priority 2013, dated 2019).

molecular target: T1, GCS (Canis lupus familiaris, UniProt A0A8I3MXG6); assay: GCS enzymatic assay (MDCK cell lysate, NBD-ceramide to glucosylceramide, LC/MS); format: biochemical, canine; conditions: Table 2; class symbols A, B, C; the table does not say which of the assays; read-out: Data Range (IC50 values)
T1 construct: endogenous in cells; host or cells: MDCK (Madin-Darby canine kidney) cells, whole-cell lysate
T1 sequence (A0A8I3MXG6 1-394): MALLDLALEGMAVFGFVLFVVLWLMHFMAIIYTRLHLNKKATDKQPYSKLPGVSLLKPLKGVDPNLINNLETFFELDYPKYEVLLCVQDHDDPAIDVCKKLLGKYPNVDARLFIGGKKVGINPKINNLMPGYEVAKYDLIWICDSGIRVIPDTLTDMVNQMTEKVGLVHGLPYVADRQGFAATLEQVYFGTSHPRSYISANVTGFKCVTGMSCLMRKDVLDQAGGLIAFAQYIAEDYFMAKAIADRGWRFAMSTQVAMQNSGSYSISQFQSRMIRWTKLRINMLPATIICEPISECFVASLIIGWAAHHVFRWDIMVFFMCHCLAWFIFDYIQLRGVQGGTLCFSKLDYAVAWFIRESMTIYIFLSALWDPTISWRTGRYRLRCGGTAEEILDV
Procedure, shortened: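 Dog MDCK cell lysate served as enzyme source, with NBD-ceramide turned over to glucosylceramide and 0.1% DMSO as mock control. The reaction was stopped with acetonitrile. Both lipids were quantified by LC/MS/MS in ESI positive MRM mode against a tolbutamide internal standard, giving IC50 or percent inhibition.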

| Compound | IC50 [nM] |
| --- | --- |
| O=C(N[C@H](CN1CCCC1)[C@H](O)c1ccc(OC2CCCC2)c(Cl)c1)[C@@H]1CCN(c2ccc(Cl)cc2)C1 [Compound 141, (R)-N-((1R,2R)-1-(3-chloro-4-(cyclopentyloxy)phenyl)-1-hydroxy-3-(pyrrolidin-1-yl)propan-2-yl)-1-(4-chlorophenyl)pyrrolidine-3-carboxamide] | 30 to 100 |
| O=C(N[C@H](CN1CCCC1)[C@H](O)c1ccc(OC2CC2)cc1)[C@@H]1CCN(c2ccc(F)cc2)C1 [Compound 148, (R)-N-((1R,2R)-1-(4-cyclopropoxyphenyl)-1-hydroxy-3-(pyrrolidin-1-yl)propan-2-yl)-1-(4-fluorophenyl)pyrrolidine-3-carboxamide] | 1 to 30 |
| O=C(N[C@H](CN1CCCC1)[C@H](O)c1ccc(OC2CC2)c(Cl)c1)[C@@H]1CCN(c2ccc(Cl)c(Oc3ccccn3)c2)C1 [Compound 103, (R)-1-(4-chloro-3-(pyridin-2-yloxy)phenyl)-N-((1R,2R)-1-(3-chloro-4-cyclopropoxyphenyl)-1-hydroxy-3-(pyrrolidin-1-yl)propan-2-yl)pyrrolidine-3-carboxamide] | 1 to 30 |
| O=C(N[C@H](CN1CCCC1)[C@H](O)c1ccc(OC2CC2)c(Cl)c1)[C@@H]1CCN(c2ccc3ccccc3c2)C1 [Compound 67, (R)-N-((1R,2R)-1-(3-chloro-4-cyclopropoxyphenyl)-1-hydroxy-3-(pyrrolidin-1-yl)propan-2-yl)-1-(naphthalen-2-yl)pyrrolidine-3-carboxamide] | 1 to 30 |

same assay, conditions: Table 2; class symbols D, E, F, NA (not active); the table does not say which of the assays

| Compound | Data Range (% inhibition) |
| --- | --- |
| O=C(N[C@H](CN1CCCC1)[C@H](O)c1ccc2c(c1)OCCO2)C1CCN(C2CCOCC2)C1 (stereo partly drawn) [Compound 9D, N-((1R,2R)-1-(2,3-dihydrobenzo[b][1,4]dioxin-6-yl)-1-hydroxy-3-(pyrrolidin-1-yl)propan-2-yl)-1-(tetrahydro-2H-pyran-4-yl)pyrrolidine-3-carboxamide] | F (1-49% (or less than 50%)) |
| O=C(N[C@H](CN1CCCC1)[C@H](O)c1ccc(N2CCOCC2)c(Cl)c1)[C@H]1CCN(c2ccc(Cl)cc2)C1 [Compound 74C, (S)-N-((1R,2R)-1-(3-chloro-4-morpholinophenyl)-1-hydroxy-3-(pyrrolidin-1-yl)propan-2-yl)-1-(4-chlorophenyl)pyrrolidine-3-carboxamide] | NA (not active—a negative value was generated for % inhibition) |
| O=C(N[C@H](CN1CCCC1)[C@H](O)c1ccc(OC2CC2)c(Cl)c1)[C@@H]1CCN(c2ccc(Cl)cn2)C1 [Compound 57, (R)-N-((1R,2R)-1-(3-chloro-4-cyclopropoxyphenyl)-1-hydroxy-3-(pyrrolidin-1-yl)propan-2-yl)-1-(5-chloropyridin-2-yl)pyrrolidine-3-carboxamide] | F (1-49% (or less than 50%)) |
| O=C(N[C@H](CN1CCCC1)[C@H](O)c1ccc(OC2CC2)c(Cl)c1)C1CCN(c2ccc(Cl)cc2)C1 (stereo in doubt) [Compound 3B, (R)-N-((1R,2R)-1-(3-chloro-4-cyclopropoxyphenyl)-1-hydroxy-3-(pyrrolidin-1-yl)propan-2-yl)-1-(4-chlorophenyl)pyrrolidine-3-carboxamide] | F (1-49% (or less than 50%)) |
| O=C(N[C@H](CN1CCCC1)[C@H](O)c1cc(F)c2c(c1)OCCO2)[C@H]1CCN(c2ccc3cc(F)ccc3c2)C1 [Compound 52A, (S)-N-((1R,2R)-1-(8-fluoro-2,3-dihydrobenzo[b][1,4]dioxin-6-yl)-1-hydroxy-3-(pyrrolidin-1-yl)propan-2-yl)-1-(6-fluoronaphthalen-2-yl)pyrrolidine-3-carboxamide] | E (50-74% (or less than 75%)) |
| O=C(N[C@H](CN1CCCC1)[C@H](O)c1ccc(OC2CCOCC2)c(Cl)c1)[C@H]1CCN(c2ccc(F)cc2)C1 [Compound 32A, (S)-N-((1R,2R)-1-(3-chloro-4-((tetrahydro-2H-pyran-4-yl)oxy)phenyl)-1-hydroxy-3-(pyrrolidin-1-yl)propan-2-yl)-1-(4-fluorophenyl)pyrrolidine-3-carboxamide] | F (1-49% (or less than 50%)) |
